What was measured:
WT full length PAICS = WT full length PAICS (Homo sapiens (Human), UniProt P22234); experiment: Biochemical assay to measure PAICS activity (Transcreener ADP2 FI); settings: SAICAR synthetase reaction, ADP detection, 30 min pre-incubation
From the text: Biochemical Assay to Measure PAICS Activity
The biochemical assay was used to measure PAICS SAICAR synthetase-mediated conversion of CAIR, aspartic acid and ATP to SAICAR, ADP and inorganic phosphate (Pi), post-AIR/CAIR equilibration (see FIG. 3). This was achieved by detecting the ADP generated during the reaction, using Bellbrook Lab's Transcreener ADP^2 FI assay. An increase in the fluorescence intensity is directly proportional to the amount of PAICS activity.
The Transcreener ADP^2 FI assay is a homogeneous competitive displacement fluorescence intensity assay which uses direct immunodetection of ADP. Displacement of the tracer by ADP causes an increase in the fluorescence at excitation 590 nm and emission 617 nm (FIG. 3).
5 μl WT full length PAICS (final assay concentration, fac, 2.5 nM) in basic buffer, added to black, non-binding, 384-well plates (Corning #3575), columns 1 to 22. 5 μl basic buffer was added to columns 23+24 (negative control). PAICS stock at 31.9 μM from the PI's lab (Steve Firestine). Basic buffer contained 50 mM Tris-HCl pH8 and 0.5 mM EDTA, fac.
1 μl compound in 100% DMSO added per well, or 1 μl 100% DMSO to positive controls (columns 1+2) and negative controls (columns 23+24). Final assay top concentration of compound either 1 mM or 30-μM, serially diluted with half-log dilutions across the plate in duplicate (one 10-point concentration response curve across wells 3 to 12, another across 13 to 22). Compounds pre-incubated with PAICS enzyme for 30 mins at RT. 2 μl CAIR added (fac 10 μM) in basic buffer plus 25 mM MgCl2 and 50 mM KHCO3 fac to all wells. CAIR stock 50 mM from Steve Firestine's lab. 1 hr RT incubation for AIR-CAIR equilibration. NB: ˜50% CAIR is decarboxylated during equilibration therefore 5 μM remains for the synthetase reaction.
2 μl ATP/aspartic acid added (fac 30 μM/180 μM) in reaction buffer to all wells. 30 mins RT incubation for appropriate level of ATP turnover. Reaction buffer contained basic buffer plus 10 mM DTT, 0.01% BSA and 0.01% Brij 35, fac.
10 μl ADP detection reagent added to all wells (as per instructions, Transcreener ADP^2 FI kit, BellBrook Labs #3013-10K). Incubation for 1 h at RT to allow antibody equilibration. Fluorescence intensity determined using a Tecan Safire2 (excitation at 590 nm, emission at 617 nm).

[1] = tested on: wild type LM2 and CRISPR edited LM2; experiment: 2D cell proliferation assay, wild type LM2 versus PAICS CRISPR edited LM2; assay type: cell-based, human; settings: LM2 cells, PAICS CRISPR edited vs wild type
Experimental: Cas9 nuclease-mediated gene editing (Sander and Joung, 2014) was performed using a CRISPR RNA guide sequence ([…], PAM: AGG) targeting exon 3 in the human PAICS gene (accession number: NM_006452).
Stable cell clones were isolated and gene disruption confirmed by DNA sequencing and the absence of PAICS cellular protein expression confirmed by Western blotting.
A small set of compounds were tested against wild type LM2 and CRISPR edited LM2 in the 2D cell proliferation assay to establish to what extent the cellular potency was driven by PAICS mediated effects. The data is shown in Table 2: compounds tested had no effect on CRISPR edited cells, confirming the on-targets effect as being PAICS mediated.

[2] = tested on: LM2 and MDA-MB-231 breast cancer cell lines; experiment: PAICS 2D cell proliferation assay (CellTiter-Glo viability, 72 h); assay type: cell-based; settings: Homo sapiens; 72 h incubation; cell line not given
Experimental: PAICS 2D Cell Proliferation Assay
Frozen cryovial stocks of LM2 and MDA-MB-231 breast cancer cell lines were thawed and cultured in 4.5 g/L glucose DMEM (31966-047, Invitrogen) supplemented with 10% Fetal Bovine Serum (10500-064, Invitrogen) until confluent in a T175 flask. Cells were incubated at 37° C. with 5% CO2 in a humidified incubator.
Cells were collected from T175 flasks by washing with PBS (10010-056, Invitrogen) and dissociated using Accutase (A6964, Sigma Aldrich). This was followed by centrifuging (1200 rpm, 5 min) and resuspending the cells in 10 ml of media containing 1% penicillin/streptomycin (15140-122, Invitrogen). Cells were counted by trypan blue exclusion method using an automated cell counter (Cellometer) and diluted to a concentration of 40,000/ml. 1000 cells were then seeded into 384-well white-walled plates (Corning, 3707) in a volume of 25 μl. Plates were Incubated overnight at 37° C. with 5% CO2.
After 24 hours, PAICS compounds were added onto the assay plates using an HP D300 Digital Dispenser (Hewlett Packard). 10 mM stocks were used and dispensed as a 10 point concentration response curve (CRC) ½ log dilution series with a final top concentration of 100 μM. Controls were added onto each plate: positive controls included Staurosporine CRC (100 μM stock dispensed as a 10 point CRC ½ log dilution series with a final top concentration of 1 μM) and PAICS compound MRT00211919 (10 mM stock dispensed as a 10 point CRC ½ log dilution series with a final top concentration of 100 μM); a high control of Staurosporine (0.1 μM (LM2), 0.316 μM (MDA-MB-231) FAC) and a low control of media containing 1% DMSO. A final concentration of 1% DMSO was then added across the plates for normalisation. Following compound addition, assay plates were incubated for 72 hours at 37° C. with 5% CO2.
Day 5—Cytotoxicity and Cell Viability Assays
After 72 h incubation, dead and viable cells were measured in each assay plate. Cytotoxicity was assessed through fluorescent DNA staining using the CellTox™ Green Cytotoxicity Assay kit (G8743, Promega) following the manufacturer's multiplexing protocol. Impaired cell membrane integrity results in the access of dye to stain DNA allowing quantification of dead cells. Cell viability was determined following ATP quantification using the CellTiter-Glo® Luminescent Cell Viability Assay kit (G7572, Promega) following the manufacturer's protocol. ATP released from lysed cells allowed for the generation of a signal proportional to the number of cells present in the well. All endpoint reads were performed using the PheraSTAR Plus (BMG Labtech). Data is expressed as % viable cells and % dead cells against controls (mean±SEM of duplicate curves).

MDA-MB-231 Dlux cells = experiment: MDA-MB-231-Dlux xenograft model; assay type: in vivo; settings: oral 25 mg/kg twice daily, 2 weeks, mammary fat pad implant, MF-1 nude mice
Experimental: Evaluation of Compound 69 in MDA-MB-231-Dlux Xenograft Model
Mice were implanted with MDA-MB-231 Dlux cells in the mammary fat pad. Mice were treated with test agent, (Compound 69), standard of care control agent, docetaxel, or vehicle control, once tumours reached a mean volume of ˜100-200 mm^3. Tumours were measured every 2-3 days using electronic calipers and tumour volume estimated using the formula 0.5 (L×W^2). Treatment continued for 2 weeks. Mice were observed and body weight measured daily
MF-1 (HsdOla:MF1-Foxn1^nu)
MDA-MB-231 Dlux (Bioluminescent MDA-MD-231 variant)
Implantation Site: Mammary fat pad (1:1 matrgel/PBS)
Compound 69 (Oral 25 mg/kg twice daily)
Docetaxel (IV 5 mg/kg twice weekly)

Chain of WT full length PAICS (P22234 whole entry): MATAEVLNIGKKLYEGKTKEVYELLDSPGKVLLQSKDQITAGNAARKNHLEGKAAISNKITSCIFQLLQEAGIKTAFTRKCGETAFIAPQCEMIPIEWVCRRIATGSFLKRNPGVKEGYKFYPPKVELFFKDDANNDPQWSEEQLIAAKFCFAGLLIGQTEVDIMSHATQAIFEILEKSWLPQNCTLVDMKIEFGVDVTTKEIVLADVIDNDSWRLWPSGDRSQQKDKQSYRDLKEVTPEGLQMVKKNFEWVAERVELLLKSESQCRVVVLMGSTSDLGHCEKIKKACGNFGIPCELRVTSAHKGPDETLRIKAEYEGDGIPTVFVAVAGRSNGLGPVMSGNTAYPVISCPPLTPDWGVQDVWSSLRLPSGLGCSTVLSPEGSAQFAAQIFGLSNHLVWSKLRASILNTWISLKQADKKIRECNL

IC50 (WT full length PAICS) | EC50 [2] | SMILES | Potency shift: CRISPR Cell EC50/WT Cell EC50 [1] | growth of primary tumour (MDA-MB-231 Dlux cells)
10 to 25 nM | 100 to 250 nM | CN(C)CCOC(=O)N1CCN(c2ccc(Br)c(NC(=O)c3coc(N)n3)c2)CC1 [Example 23, 2-(Dimethylamino)ethyl 4-(3-(2-aminooxazole-4-carboxamido)-4-bromophenyl)piperazine-1-carboxylate] | >500 | –
10 to 25 nM | 100 to 250 nM | CN(C)CCCOC(=O)N1CCN(c2ccc(Br)c(NC(=O)c3coc(N)n3)c2)CC1 [Example 24, 3-(Dimethylamino)propyl 4-(3-(2-aminooxazole-4-carboxamido)-4-bromophenyl)piperazine-1-carboxylate] | >500 | –
< 10 nM | < 100 nM | CNCCS(=O)(=O)N1CCN(c2ccc(Br)c(NC(=O)c3coc(N)n3)c2)CC1 [Example 55, 2-Amino-N-[2-bromo-5-(4-{[2-(methylamino)ethyl]sulfonyl}piperazin-1-yl)phenyl]-1,3-oxazole-4-carboxamide] | >500 | –
< 10 nM | < 100 nM | CN(C)CCCS(=O)(=O)N1CCN(c2ccc(Br)c(NC(=O)c3coc(N)n3)c2)CC1 [Example 69, 2-Amino-N-(2-bromo-5-(4-(3-(dimethylamino)propylsulfonyl)piperazin-1-yl)phenyl)oxazole-4-carboxamide] | >500 | statistically significant reduction in growth of primary tumour
10 to 25 nM | 250 to 500 nM | CNCCCS(=O)(=O)N1CCN(c2ccc(Cl)c(NC(=O)c3coc(N)n3)c2)CC1 [Example 73, 2-Amino-N-[2-chloro-5-(4-{[3-(methylamino)propyl]sulfonyl}piperazin-1-yl)phenyl]-1,3-oxazole-4-carboxamide] | – | –
< 10 nM | 250 to 500 nM | CCNCCCS(=O)(=O)N1CCN(c2ccc(Cl)c(NC(=O)c3coc(N)n3)c2)CC1 [Example 74] | – | –
< 10 nM | 100 to 250 nM | CNCCCS(=O)(=O)N1CCN(c2ccc(Br)c(NC(=O)c3coc(N)n3)c2)CC1 [Example 75, 2-Amino-N-[2-bromo-5-(4-{[3-(methylamino)propyl]sulfonyl}piperazin-1-yl)phenyl]-1,3-oxazole-4-carboxamide] | – | –
< 10 nM | < 100 nM | CC(C)NCCCS(=O)(=O)N1CCN(c2ccc(Br)c(NC(=O)c3coc(N)n3)c2)CC1 [Example 76, 2-Amino-N-[2-bromo-5-(4-{[3-(propan-2-ylamino)propyl]sulfonyl}piperazin-1-yl)phenyl]-1,3-oxazole-4-carboxamide] | – | –
< 10 nM | < 100 nM | CCN(CC)CCCS(=O)(=O)N1CCN(c2ccc(Br)c(NC(=O)c3coc(N)n3)c2)CC1 [Example 77, 2-Amino-N-[2-bromo-5-(4-{[3-(diethylamino)propyl]sulfonyl}piperazin-1-yl)phenyl]-1,3-oxazole-4-carboxamide] | – | –
< 10 nM | 100 to 250 nM | Nc1nc(C(=O)Nc2cc(N3CCN(S(=O)(=O)C4CCNCC4)CC3)ccc2Br)co1 [Example 84] | – | –
< 10 nM | 100 to 250 nM | CN1CCC(S(=O)(=O)N2CCN(c3ccc(Br)c(NC(=O)c4coc(N)n4)c3)CC2)CC1 [Example 85, 2-Amino-N-(2-bromo-5-{4-[(1-methylpiperidin-4-yl)sulfonyl]piperazin-1-yl}phenyl)-1,3-oxazole-4-carboxamide] | – | –
10 to 25 nM | 250 to 500 nM | Nc1nc(C(=O)Nc2cc(N3CCN(S(=O)(=O)C4CCNCC4)CC3)ccc2Cl)co1 [Example 86, 2-Amino-N-{2-chloro-5-[4-(piperidin-4-ylsulfonyl)piperazin-1-yl]phenyl}-1,3-oxazole-4-carboxamide] | – | –
10 to 25 nM | 250 to 500 nM | CN1CCC(S(=O)(=O)N2CCN(c3ccc(Cl)c(NC(=O)c4coc(N)n4)c3)CC2)CC1 [Example 87, 2-Amino-N-{2-chloro-8-(4-[(1-methylpiperidin-4-yl)sulfonyl]piperazin-1-yl}phenyl)-1,3-oxazole-4-carboxamide] | – | –
